biological target: T1, endogenous PIP4K2C C-terminally tagged with HiBiT peptide in MOLT-4 cells (Homo sapiens, UniProt Q8TBX8); assay: HiBiT PIP4K2C degradation assay in MOLT-4 cells; format: cell-based; conditions: 24 hours, 10-point dose response, top concentration 10 micromolar, read-out: HiBIT-degradation MOLT4 PIP4k2C 24 hours DC50
T1 construct: to C-terminally tag endogenous PIP4K2C with HiBiT peptide; host or cells: MOLT-4 (CRISPR-Cas9 knock-in clone)
T1 sequence (Q8TBX8 1-421): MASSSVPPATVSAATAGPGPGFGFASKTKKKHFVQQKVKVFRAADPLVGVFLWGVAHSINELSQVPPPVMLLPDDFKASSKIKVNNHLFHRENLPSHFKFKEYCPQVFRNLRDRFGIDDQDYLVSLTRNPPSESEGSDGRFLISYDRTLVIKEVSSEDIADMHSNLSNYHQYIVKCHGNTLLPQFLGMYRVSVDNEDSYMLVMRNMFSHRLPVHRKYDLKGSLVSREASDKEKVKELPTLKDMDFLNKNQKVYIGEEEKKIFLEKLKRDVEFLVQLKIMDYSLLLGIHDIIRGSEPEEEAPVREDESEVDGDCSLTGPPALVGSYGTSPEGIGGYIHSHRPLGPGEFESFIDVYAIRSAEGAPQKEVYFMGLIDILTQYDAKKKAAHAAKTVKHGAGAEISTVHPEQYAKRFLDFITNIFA
Method in brief: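 Cells bearing C-terminal HiBiT knock-in were exposed to a 10-point, 3-fold dilution series (top 10 micromolar, duplicate) for 24 h at 37C, 5% CO2. Remaining tagged protein read by lytic HiBiT luminescence; DC50 from Hill-equation fit.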

Structure (SMILES)	DC50
Cn1c(=O)n(C2CCC(=O)NC2=O)c2cc(OCC(=O)NCCCCCCCCCC(=O)Nc3cncc(Nc4ncc(Cl)c(-c5cccc(-c6ccccc6)c5)n4)c3)ccc21 (stereo not drawn) [Compound 51, N-(5-((4-([1,1′-biphenyl]-3-yl)-5-chloropyrimidin-2-yl)amino)pyridin-3-yl)-10-(2-((3-(2,6-dioxopiperidin-3-yl)-1-methyl-2-oxo-2,3-dihydro-1H-benzo[d]imidazol-5-yl)oxy)acetamido)decanamide]	1000 to 5000 nM
O=C1CCC(Nc2ccc(C3CCN(C(=O)CN4CCC(C(=O)Nc5cncc(Nc6ncc(Cl)c(-c7cccc(C8CC8)c7)n6)c5)CC4)CC3)cc2)C(=O)N1 (stereo not drawn) [Compound 202, N-(5-((5-chloro-4-(3-cyclopropylphenyl)pyrimidin-2-yl)amino)pyridin-3-yl)-1-(2-(4-(4-((2,6-dioxopiperidin-3-yl)amino)phenyl)piperidin-1-yl)-2-oxoethyl)piperidine-4-carboxamide]	< 500 nM
O=C1CCC(N2Cc3cc(NCCCCC(=O)N4CCC5(CC4)CCN(c4cncc(Nc6ncc(Cl)c(-c7cccc(-c8ccccc8)c7)n6)c4)C5=O)ccc3C2=O)C(=O)N1 (stereo not drawn) [Compound 84, 3-(5-((5-(2-(5-((4-([1,1′-biphenyl]-3-yl)-5-chloropyrimidin-2-yl)amino)pyridin-3-yl)-1-oxo-2,8-diazaspiro[4.5]decan-8-yl)-5-oxopentyl)amino)-1-oxoisoindolin-2-yl)piperidine-2,6-dione]	< 500 nM
O=C1CCC(Nc2ccc(C3CCN(CC(=O)N4CCC5(CC4)CCN(c4cncc(Nc6ncc(Cl)c(-c7cccc(N8CCCCC8)c7)n6)c4)C5=O)CC3)cc2)C(=O)N1 (stereo not drawn) [Compound 185, 3-[4-[1-[2-[2-[5-[[5-chloro-4-[3-(1-piperidyl)phenyl]pyrimidin-2-yl]amino]-3-pyridyl]-1-oxo-2,8-diazaspiro[4.5]decan-8-yl]-2-oxo-ethyl]-4-piperidyl]anilino]piperidine-2,6-dione]	< 500 nM
O=C1CCC(N2C(=O)c3ccc(OCCCCC(=O)N4CCC5(CC4)CCN(c4cncc(Nc6ncc(Cl)c(-c7cccc(-c8ccccc8)c7)n6)c4)C5=O)cc3C2=O)C(=O)N1 (stereo not drawn) [Compound 76, 5-((5-(2-(5-((4-([1,1′-biphenyl]-3-yl)-5-chloropyrimidin-2-yl)amino)pyridin-3-yl)-1-oxo-2,8-diazaspiro[4.5]decan-8-yl)-5-oxopentyl)oxy)-2-(2,6-dioxopiperidin-3-yl)isoindoline-1,3-dione]	< 500 nM
O=C1CCC(Nc2ccc(N3CCC(CC(=O)N4CCC5(CC4)CCN(c4cncc(Nc6ncc(Cl)c(N7CCC[C@H](C(F)(F)F)C7)n6)c4)C5=O)CC3)cc2)C(=O)N1 (stereo partly drawn) [Compound 178, 3-((4-(4-(2-(2-(5-((5-chloro-4-((S)-3-(trifluoromethyl)piperidin-1-yl)pyrimidin-2-yl)amino)pyridin-3-yl)-1-oxo-2,8-diazaspiro[4.5]decan-8-yl)-2-oxoethyl)piperidin-1-yl)phenyl)amino)piperidine-2,6-dione]	< 500 nM
O=C1CCC(Nc2ccc(N3CCC(N4CCC5(CCN(c6cncc(Nc7ncc(Cl)c(N8CCCCC8)n7)c6)C5=O)CC4)CC3)cc2)C(=O)N1 (stereo not drawn) [Compound 91, 3-((4-(4-(2-(5-((5-chloro-4-(piperidin-1-yl)pyrimidin-2-yl)amino)pyridin-3-yl)-1-oxo-2,8-diazaspiro[4.5]decan-8-yl)piperidin-1-yl)phenyl)amino)piperidine-2,6-dione]	1000 to 5000 nM

Next, values leading:

DC50	Structure (SMILES)
< 500 nM	O=C1CCC(N2Cc3cc(OCCCCCCCCCN4CCC5(CC4)CCN(c4cncc(Nc6ncc(Cl)c(-c7cccc(-c8ccccc8)c7)n6)c4)C5=O)ccc3C2=O)C(=O)N1 (stereo not drawn) [Compound 53, 3-(5-((9-(2-(5-((4-([1,1′-biphenyl]-3-yl)-5-chloropyrimidin-2-yl)amino)pyridin-3-yl)-1-oxo-2,8-diazaspiro[4.5]decan-8-yl)nonyl)oxy)-1-oxoisoindolin-2-yl)piperidine-2,6-dione]
< 500 nM	O=C(COc1cccc2c1C(=O)N(C1CCC(=O)NC1=O)C2=O)NCCCCCCCC(=O)Nc1cncc(Nc2ncc(Cl)c(-c3cccc(-c4ccccc4)c3)n2)c1 (stereo not drawn) [Compound 86, N-(5-((4-([1,1′-biphenyl]-3-yl)-5-chloropyrimidin-2-yl)amino)pyridin-3-yl)-8-(2-((2-(2,6-dioxopiperidin-3-yl)-1,3-dioxoisoindolin-4-yl)oxy)acetamido)octanamide]
< 500 nM	CN1CCC(n2cc(-c3nc(Nc4cncc(N5CCC6(CCN(C(=O)CC7CCN(c8ccc(NC9CCC(=O)NC9=O)cc8)CC7)CC6)C5=O)c4)ncc3Cl)cn2)CC1 (stereo not drawn) [Compound 193, 3-((4-(4-(2-(2-(5-((5-chloro-4-(1-(1-methylpiperidin-4-yl)-1H-pyrazol-4-yl)pyrimidin-2-yl)amino)pyridin-3-yl)-1-oxo-2,8-diazaspiro[4.5]decan-8-yl)-2-oxoethyl)piperidin-1-yl)phenyl)amino)piperidine-2,6-dione]
< 500 nM	O=C1CCC(N2Cc3cc(OC4CCN(CC(=O)N5CCC6(CC5)CCN(c5cncc(Nc7ncc(Cl)c(-c8cccc(C9CC9)c8)n7)c5)C6=O)CC4)ccc3C2=O)C(=O)N1 (stereo not drawn) [Compound 205, 3-[5-[[1-[2-[2-[5-[[5-chloro-4-(3-cyclopropylphenyl)pyrimidin-2-yl]amino]-3-pyridyl]-1-oxo-2,8-diazaspiro[4.5]decan-8-yl]-2-oxo-ethyl]-4-piperidyl]oxy]-1-oxo-isoindolin-2-yl]piperidine-2,6-dione]
< 500 nM	Cn1c(=O)n(C2CCC(=O)NC2=O)c2ccc(C3CCN(C(=O)CN4CCC(C(=O)Nc5cncc(Nc6ncc(Cl)c(-c7cccc(C8CC8)c7)n6)c5)CC4)CC3)cc21 (stereo not drawn) [Compound 204, N-(5-((5-chloro-4-(3-cyclopropylphenyl)pyrimidin-2-yl)amino)pyridin-3-yl)-1-(2-(4-(1-(2,6-dioxopiperidin-3-yl)-3-methyl-2-oxo-2,3-dihydro-1H-benzo[d]imidazol-5-yl)piperidin-1-yl)-2-oxoethyl)piperidine-4-carboxamide]
< 500 nM	O=C1CCC(Nc2ccc(N3CCC(CC(=O)N4CCC5(CC4)CCN(c4cncc(Nc6ncc(Cl)c(N7CCC[C@@H](C(F)(F)F)C7)n6)c4)C5=O)CC3)cc2)C(=O)N1 (stereo partly drawn) [Compound 177, 3-((4-(4-(2-(2-(5-((5-chloro-4-((R)-3-(trifluoromethyl)piperidin-1-yl)pyrimidin-2-yl)amino)pyridin-3-yl)-1-oxo-2,8-diazaspiro[4.5]decan-8-yl)-2-oxoethyl)piperidin-1-yl)phenyl)amino)piperidine-2,6-dione]
< 500 nM	O=C1CCC(Nc2ccc(C3CCN(CC(=O)N4CCC5(CC4)CCN(c4cncc(Nc6ncc(Cl)c(N7CCC[C@H](C(F)(F)F)C7)n6)c4)C5=O)CC3)cc2)C(=O)N1 (stereo partly drawn) [Compound 172, 3-((4-(1-(2-(2-(5-((5-chloro-4-((S)-3-(trifluoromethyl)piperidin-1-yl)pyrimidin-2-yl)amino)pyridin-3-yl)-1-oxo-2,8-diazaspiro[4.5]decan-8-yl)-2-oxoethyl)piperidin-4-yl)phenyl)amino)piperidine-2,6-dione]
< 500 nM	O=C1CCC(Nc2ccc(N3CCC(N4CCN(CCC(=O)Nc5cncc(Nc6ncc(Cl)c(-c7cccc(-c8ccccc8)c7)n6)c5)CC4)CC3)cc2)C(=O)N1 (stereo not drawn) [Compound 183, N-(5-((4-([1,1′-biphenyl]-3-yl)-5-chloropyrimidin-2-yl)amino)pyridin-3-yl)-3-(4-(1-(4-((2,6-dioxopiperidin-3-yl)amino)phenyl)piperidin-4-yl)piperazin-1-yl)propanamide]
